Assay results: PubChem BioAssay (NCI)
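Tested at 5 concentrations; 48 h exposure; 96-well plates; endpoints linearly interpolated, else capped at highest concentration. At the GI50, growth is halved. TGI: concentration producing complete growth inhibition.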

Experiments:
Assay in all cases: NCI anticancer screen, dose series, 48 h
SF-295 CNS = tested on: SF-295 CNS
OVCAR-3 ovarian = tested on: OVCAR-3 ovarian
MCF7 breast = tested on: MCF7 breast
M14 melanoma = tested on: M14 melanoma
MALME-3M melanoma = tested on: MALME-3M melanoma
COLO 205 colon = tested on: COLO 205 colon
MDA-MB-468 breast = tested on: MDA-MB-468 breast
RXF 393 renal = tested on: RXF 393 renal
SNB-19 CNS = tested on: SNB-19 CNS
KM12 colon = tested on: KM12 colon
K-562 leukemia = tested on: K-562 leukemia
IGROV1 ovarian = tested on: IGROV1 ovarian
OVCAR-5 ovarian = tested on: OVCAR-5 ovarian
HOP-92 NSCLC = tested on: HOP-92 NSCLC
HOP-62 NSCLC = tested on: HOP-62 NSCLC
T-47D breast = tested on: T-47D breast
A549 NSCLC = tested on: A549 NSCLC
MDA-MB-231 breast = tested on: MDA-MB-231 breast
DU-145 prostate = tested on: DU-145 prostate
NCI-H522 lung = tested on: NCI-H522 lung
ACHN renal = tested on: ACHN renal
SK-MEL-28 melanoma = tested on: SK-MEL-28 melanoma
PC-3 prostate = tested on: PC-3 prostate
SK-MEL-2 melanoma = tested on: SK-MEL-2 melanoma
NCI-H23 lung = tested on: NCI-H23 lung
RPMI-8226 leukemia = tested on: RPMI-8226 leukemia
LOX IMVI melanoma = tested on: LOX IMVI melanoma
HT29 colon = tested on: HT29 colon
MOLT-4 leukemia = tested on: MOLT-4 leukemia
EKVX NSCLC = tested on: EKVX NSCLC

**Q.** For `O=C(O)CCCCCCCCCCN1C(=O)/C(=C/c2cnc(-c3ccc(Cl)cc3)s2)SC1=S`, which GI50 (SF-295 CNS) is on record?
**A.** The GI50 was 2.29 µM.

**Q.** What about the TGI (SF-295 CNS) of the same compound?
**A.** Its TGI is 7.26 µM.

**Q.** And the GI50 (OVCAR-3 ovarian)?
**A.** The GI50 was 4.87 µM.

**Q.** What about the TGI (OVCAR-3 ovarian) of the same compound?
**A.** The TGI was 51.4 µM.

**Q.** What about the GI50 (MCF7 breast) of the same compound?
**A.** The GI50 was 3.73 µM.

**Q.** And the TGI (MCF7 breast)?
**A.** The TGI was > 100 µM.

**Q.** And the GI50 (M14 melanoma)?
**A.** The GI50 was 2.1 µM.

**Q.** What about the TGI (M14 melanoma) of the same compound?
**A.** Its TGI is 5.71 µM.

**Q.** What about the GI50 (MALME-3M melanoma) of the same compound?
**A.** The GI50 was 5.92 µM.

**Q.** And the TGI (MALME-3M melanoma)?
**A.** Its TGI is 28.1 µM.

**Q.** And the GI50 (COLO 205 colon)?
**A.** Its GI50 is > 100 µM.

**Q.** And the TGI (COLO 205 colon)?
**A.** Its TGI is > 100 µM.

**Q.** What about the GI50 (MDA-MB-468 breast) of the same compound?
**A.** The GI50 was 2.63 µM.

**Q.** What about the TGI (MDA-MB-468 breast) of the same compound?
**A.** The TGI was 12 µM.

**Q.** What about the GI50 (RXF 393 renal) of the same compound?
**A.** Its GI50 is 12.1 µM.

**Q.** What about the TGI (RXF 393 renal) of the same compound?
**A.** The TGI was 47.3 µM.

**Q.** What about the GI50 (SNB-19 CNS) of the same compound?
**A.** The GI50 was 2.86 µM.

**Q.** What about the TGI (SNB-19 CNS) of the same compound?
**A.** Its TGI is 9.76 µM.

**Q.** What about the GI50 (KM12 colon) of the same compound?
**A.** Its GI50 is 2.93 µM.

**Q.** And the TGI (KM12 colon)?
**A.** Its TGI is > 100 µM.

**Q.** And the GI50 (K-562 leukemia)?
**A.** Its GI50 is 3.71 µM.

**Q.** What about the TGI (K-562 leukemia) of the same compound?
**A.** The TGI was > 100 µM.

**Q.** And the GI50 (IGROV1 ovarian)?
**A.** Its GI50 is 2.89 µM.

**Q.** What about the TGI (IGROV1 ovarian) of the same compound?
**A.** Its TGI is 13.7 µM.

**Q.** What about the GI50 (OVCAR-5 ovarian) of the same compound?
**A.** The GI50 was 2.59 µM.

**Q.** What about the TGI (OVCAR-5 ovarian) of the same compound?
**A.** The TGI was > 100 µM.

**Q.** And the GI50 (HOP-92 NSCLC)?
**A.** The GI50 was 0.292 µM.

**Q.** What about the TGI (HOP-92 NSCLC) of the same compound?
**A.** The TGI was 1.79 µM.

**Q.** What about the GI50 (HOP-62 NSCLC) of the same compound?
**A.** Its GI50 is 3.81 µM.

**Q.** What about the TGI (HOP-62 NSCLC) of the same compound?
**A.** The TGI was 15.9 µM.

**Q.** What about the GI50 (T-47D breast) of the same compound?
**A.** The GI50 was 4.77 µM.

**Q.** And the TGI (T-47D breast)?
**A.** The TGI was > 100 µM.

**Q.** What about the GI50 (A549 NSCLC) of the same compound?
**A.** Its GI50 is 1.01 µM.

**Q.** And the TGI (A549 NSCLC)?
**A.** The TGI was 4.51 µM.

**Q.** And the GI50 (MDA-MB-231 breast)?
**A.** The GI50 was 1.65 µM.

**Q.** What about the TGI (MDA-MB-231 breast) of the same compound?
**A.** The TGI was 4.48 µM.

**Q.** What about the GI50 (DU-145 prostate) of the same compound?
**A.** Its GI50 is 1.81 µM.

**Q.** What about the TGI (DU-145 prostate) of the same compound?
**A.** Its TGI is 30 µM.

**Q.** What about the GI50 (NCI-H522 lung) of the same compound?
**A.** Its GI50 is 1.68 µM.

**Q.** And the TGI (NCI-H522 lung)?
**A.** The TGI was 4.55 µM.

**Q.** What about the GI50 (ACHN renal) of the same compound?
**A.** Its GI50 is 2.38 µM.

**Q.** And the TGI (ACHN renal)?
**A.** Its TGI is 11.7 µM.

**Q.** What about the GI50 (SK-MEL-28 melanoma) of the same compound?
**A.** Its GI50 is 2.69 µM.

**Q.** And the GI50 (PC-3 prostate)?
**A.** Its GI50 is 1.26 µM.

**Q.** And the TGI (PC-3 prostate)?
**A.** The TGI was 4.9 µM.

**Q.** What about the GI50 (SK-MEL-2 melanoma) of the same compound?
**A.** The GI50 was 2.12 µM.

**Q.** What about the TGI (SK-MEL-2 melanoma) of the same compound?
**A.** Its TGI is 5.02 µM.

**Q.** And the GI50 (NCI-H23 lung)?
**A.** Its GI50 is 2.43 µM.

**Q.** What about the TGI (NCI-H23 lung) of the same compound?
**A.** Its TGI is 8.95 µM.

**Q.** And the GI50 (RPMI-8226 leukemia)?
**A.** Its GI50 is 10.3 µM.

**Q.** What about the TGI (RPMI-8226 leukemia) of the same compound?
**A.** The TGI was > 100 µM.

**Q.** And the GI50 (LOX IMVI melanoma)?
**A.** The GI50 was 1.69 µM.

**Q.** What about the TGI (LOX IMVI melanoma) of the same compound?
**A.** The TGI was 3.87 µM.

**Q.** And the GI50 (HT29 colon)?
**A.** Its GI50 is > 100 µM.

**Q.** What about the TGI (HT29 colon) of the same compound?
**A.** Its TGI is > 100 µM.

**Q.** What about the GI50 (MOLT-4 leukemia) of the same compound?
**A.** The GI50 was 3.39 µM.

**Q.** And the TGI (MOLT-4 leukemia)?
**A.** The TGI was > 100 µM.

**Q.** What about the GI50 (EKVX NSCLC) of the same compound?
**A.** Its GI50 is 1.84 µM.

**Q.** And the TGI (EKVX NSCLC)?
**A.** Its TGI is 5.13 µM.
